US7429564B2, “Oral insulin therapy” (Emisphere Technologies, Inc., priority 2002, dated 2008)
Where “and” joins values, the source holds several entries; their conditions need not be identical. Equal values may be shown once. Marks after values point to notes of the source that are not given here.

Assays:
[1] = tested on: plasma glucose; test: Example 5: plasma glucose pharmacodynamics; format: in vivo, human
Method: (§1) For insulin/4-CNAB treatment Groups 2 and 3, subjects' blood samples (1 drop per sample) were drawn at 15 minutes before dosing, and at 5, 10, 15, 20, 25, 30, 35, 40, and 50 minutes and at 1, 1.25, 1.5, 1.75, 2, 2.5, 3, 4, 6, 8 and 12 hours post-dose (21 samples per treatment for Insulin/4-CNAB dosing groups) for plasma glucose, insulin and C-peptide measurements. For the 4-CNAB alone treatment Group 1, blood samples were collected before dosing (−15 minutes), and at 30 minutes and at 2 hr post-dose for blood glucose measurements. For the insulin alone control group (minimum 3 subjects), blood samples (3 mL in sodium heparin tube) were drawn at 15 minutes before dosing, and at 10, 20, 30, 40, 50 minutes and 1, 1.25, 2, 2.5, 3 and 6 hr post-dose (12 samples per treatment). The blood samples for glucose were assayed in real time using a Glucometer®. These measurements were used for detection of onset of hypoglycemia, so rescue action could be taken where necessary. Plasma glucose, insulin and C-peptide measurements were done according to standard procedures.
Plasma glucose was measured based on a timed-endpoint method using a BECKMAN Synchron CX system that mixes exact proportions of reagents that catalyse the phosphorylation of glucose. The Synchron CX measures changes in the absorbance spectrum at 340 nm at a fixed time interval. The change in absorbance is directly proportional to the concentration of glucose in the sample.
On the basis of plasma concentrations of glucose, PD analysis was performed using WinNonlin™ Professional version 3.2. The profiles for glucose, glucose change from baseline and glucose percentage change from baseline were evaluated up to 6 hours as food was given 6 hours following insulin treatment. The following PD parameters were computed for plasma glucose concentration: AURC(0-2), AURC(0-t) (total response), Rmax (minimum value), tRmax and concentrations (R^b) and corresponding time (t^b) immediately prior to intervention for hypoglycemia. The following PD parameters were computed for plasma glucose concentration change from baseline: AUEC(0-2), AUEC(0-t) (baseline subtracted), Emax (baseline subtracted), tEmax (obtained without interpolation), percent change from baseline and concentrations (E^c) and corresponding time (t^c) immediately prior to intervention for hypoglycemia.
Similarly, in order to take into account baseline levels of glucose, PD analysis was conducted based on the percent change (decrease or increase) in glucose concentration from the baseline, where baseline was taken as the pre-dose concentration levels, rather than absolute values only. The glucose concentration percent change from baseline values were also calculated, and profiles were tabulated and plotted. Thus, […]

[2] = tested on: aorta mRNA expression; test: GeneChip analysis of aorta mRNA expression after oral and SC dosing of insulin; format: in vivo, Sprague-Dawley rats; conditions: for Changes in aorta mRNA levels (control groups): component given orally alone
Method: A total of 60 male Sprague-Dawley rats were fasted for 24 hours and then anesthetized with Thorazine (1.5 mg/kg, im) and Ketamine (44 mg/kg, im). They were then divided into the following 5 treatment groups: • 1. H2O (p.o. 1 mL/kg) • 2. Carrier (p.o., 1 mL/kg; 200 mg/kg) • 3. Insulin (p.o., 1 ml/kg; 0.5 mg/kg) • 4. Insulin and Carrier (p.o., 1 ml/kg; 0.5 mg/kg Insulin and 200 mg/kg 1182) • 5. Insulin (s.c., 0.05 mg/kg) • There were twelve animals per group, with three being sacrificed at 30, 60, 120 and 180 minutes. For serum insulin and blood glucose monitoring, 0.4 mL of blood was drawn from the tail artery. Following euthanasia, an aorta sample was removed and snap-frozen in liquid nitrogen. All animal studies where conducted in accordance with the IACUC approved protocols.
Total RNA was prepared from the frozen tissue sample following the protocol for use of Trizol Reagent (Invitrogen, Inc., Carlsbad, Calif.). The samples were then further cleaned up by use of the Qiagen Midi Kit (Valencia, Calif.). Quality of each RNA sample was assessed using agarose gel electrophoresis and UV absorbance at 260 and 280. Acceptable RNA samples were pooled in equal quantities on a mass basis. This pooled sample was used to prepare cDNA following the protocol provided by Affymetrix. This sample was then used as template in an ii: vitro transcription labeling and amplification reaction using the Enzo BioArray High Yield RNA Transcript Labeling Kit (Affymetrix Inc., Santa Clara, Calif.). 15 μg of labeled transcript was then fragmented and used to prepare a hybridization solution as described in the Affymetrix GeneChip Protocol, Affymetrix, Inc., 2000.
The samples were hybridized to a Test Array and 5′ to 3′ ratios, detection limit, and image quality were assessed to ensure the quality of the labeled sample. Acceptable samples were then hybridized to an Affymetrix Rat U34A array. Washing and staining of these arrays was performed using the standard Affymetrix protocols. Array quality was assessed in the same manner as the Test array. Acceptable samples were analyzed both in the expression patterns seen across the group as well as pair wise in the following manner:
Fold change were determined by the Affymetrix Microarray Suite Software package and values below 2 fold were considered insignificant. This software package analysis compares the individual members of each probe set to determine a Difference Call. In this report all calculated fold changes are used in the figures, however in the results and discussion only those fold changes that received an Increasing or Decreasing call by the Affymetrix software were used to draw conclusions.

[3] = tested on: plasma C-peptide; test: Example 5: plasma C-peptide; format: in vivo, human
Method: as §1, with “Plasma glucose, insulin and C-peptide measurements were done according to standard procedures.” left out
Plasma C-peptide was measured using a DELFIA C-peptide kit, based on a solid phase, two-site fluoroimmunometric assay, which used the direct sandwich technique in which two monoclonal antibodies are directed against antigenic determinants on the C-peptide molecule. […] The fluorescence is directly proportional to the concentration of C-peptide in the sample.

[4] = Example 5: C-peptide corrected insulin pharmacokinetics; design: species or system human; conditions: in vivo; for C-peptide corrected insulin AUC(0-2) / C-peptide corrected insulin AUC(0-6) / C-peptide corrected insulin tmax, median: human
Method: On the basis of plasma concentrations of 4-CNAB and insulin, PK analysis was performed using non-compartmental PK methods as implemented in WinNonlin™ Professional version 3.2. The profiles for insulin and C-peptide corrected insulin were evaluated up to 6 hours as food was given 6 hours following insulin treatment. The following parameters were derived for 4-CNAB: Cmax, tmax, AUC(0-t), AUC(0-inf), AUC% Extrap, Kel, t1/2, CL/F, Vd/F, MRT(0-t), MRT(0-inf) and Frel. The following parameters were derived for insulin and C-peptide corrected insulin: Cmax, tmax, AUC(0-2), AUC(0-6), AUC(0-t) and concentrations (C^b) and corresponding time (t^b) immediately prior to intervention for hypoglycemia.
For the PK analysis of insulin, analysis was conducted for both measured insulin and C-peptide corrected insulin concentrations. This was done using concentrations of the precursor C-peptide and the following equation: Corrected Insulin Concentration=Insulin Concentration−(Baseline Ratio×C-peptide) where

[5] = 10 Units SC, carrier 0, unaudited data
[6] = 10 Units SC, hypoglycemic subjects
[7] = 150 Units oral insulin alone, all subjects
[8] = 150 Units oral insulin alone, non-hypoglycemic subjects

O=C(O)CCCNC(=O)c1ccc(Cl)cc1O [4-CNAB, 4-[(4-chloro, 2-hydroxybenzoyl)amino]butanoic acid]
Effect on plasma glucose levels ([1]; 4-CNAB alone, oral): no significant effect on plasma glucose levels
Changes in aorta mRNA levels (control groups) [2]: no consistent and significant changes in mRNA levels in the aorta

SC insulin: human regular insulin injected subcutaneously (Humulin R or equivalent; Calbiochem insulin in the rat studies)
% Max C-peptide Reduction [3, 5]: 54.3 ± 9.8%
C-peptide corrected insulin AUC(0-2) ([4]; sc): 355.2 ± 170.2 pmol·h/L
C-peptide corrected insulin AUC(0-6) ([4]; sc): 942.8 ± 333.0 pmol·h/L
C-peptide corrected insulin tmax, median ([4]; sc): 1.88 h
C-peptide corrected insulin C^b ([4]; sc): 159.5 ± 75.6 pmol/L
C-peptide corrected insulin t^b, median ([4]; sc): 1.00 h
% Max Glucose Reduction [1, 5]: 32.3 ± 9.6%
Glucose change AUEC(0-2) ([1]; 10 Units SC, all subjects): -0.71 ± 1.32 mmol·h/L
Glucose change AUEC(0-6) ([1]; 10 Units SC, all subjects): -1.40 ± 4.41 mmol·h/L
Glucose change from baseline Emax ([1]; 10 Units SC, all subjects): -2.28 ± 0.5 mmol/L and -2.28 ± 0.40 mmol/L
Glucose change tEmax, median ([1]; 10 Units SC, all subjects): 1.00 h
Maximum % change of glucose from baseline up to 6 h ([1]; 10 Units SC, all subjects): −39.82±8.26%
Plasma glucose AURC(0-2) ([1]; 10 Units SC, all subjects): 10.40 ± 1.36 mmol·h/L
Plasma glucose AURC(0-6) ([1]; 10 Units SC, all subjects): 32.02 ± 4.66 mmol·h/L
Plasma glucose Rmax (minimum concentration) ([1]; 10 Units SC, all subjects): 3.31 ± 0.42 mmol/L
Plasma glucose tRmax, median ([1]; 10 Units SC, all subjects): 1.00 h
Glucose change AUEC(0-6) [1, 6]: 1.00 mmol·h/L
Glucose change E^c (immediately prior to recovery from hypoglycemia) [1, 6]: -0.71 ± 1.32 mmol/L
Glucose change from baseline Emax [1, 6]: -2.28 ± 0.40 mmol/L
Glucose change tEmax, median [1, 6]: 1.00 h
Maximum % change of glucose from baseline up to 6 h [1, 6]: −39.82 ± 8.26%
Plasma glucose AURC(0-2) [1, 6]: 10.40 ± 1.36 mmol·h/L
Plasma glucose AURC(0-6) [1, 6]: 32.02 ± 4.66 mmol·h/L
Plasma glucose R^b (immediately prior to recovery from hypoglycemia) [1, 6]: 3.45 ± 0.41 mmol/L
Plasma glucose Rmax (minimum concentration) [1, 6]: 3.31 ± 0.42 mmol/L
Plasma glucose tRmax, median [1, 6]: 1.00 h
Plasma glucose t^b, median [1, 6]: 1.00 h
ICAM-1 mRNA ([2]; 180 minutes): increased
c-myc mRNA ([2]; 180 minutes): significant increase
IL-6 mRNA ([2]; vs sham): significant increase

oral insulin alone: recombinant human zinc insulin given orally without delivery agent
Change in C-peptide concentrations from baseline ([3]; 150 Units oral insulin alone): little change in C-peptide concentrations from baseline
C-peptide corrected insulin AUC(0-2) ([4]; po): 10.8 ± 16.6 pmol·h/L
C-peptide corrected insulin AUC(0-6) ([4]; po): 21.5 ± 42.0 pmol·h/L
C-peptide corrected insulin tmax, median ([4]; po): 2.00 h
Change in glucose concentrations ([1]; 150 Units oral insulin alone): only a slight change in glucose concentrations
Glucose change AUEC(0-2) [1, 7]: -0.63 ± 0.77 mmol·h/L
Glucose change from baseline Emax [1, 7]: -0.79 ± 0.43 mmol/L
Glucose change tEmax, median [1, 7]: 6.00 h
Maximum % change of glucose from baseline up to 6 h [1, 7]: −12.41 ± 6.48%
Plasma glucose AURC(0-2) [1, 7]: 11.06 ± 0.69 mmol·h/L
Plasma glucose AURC(0-6) [1, 7]: 32.15 ± 1.41 mmol·h/L
Plasma glucose Rmax (minimum concentration) [1, 7]: 5.08 ± 0.20 mmol/L
Plasma glucose tRmax, median [1, 7]: 6.00 h
Glucose change AUEC(0-6) ([1]; 150 Units oral insulin alone, all subjects, AUEC(0-t) for 6 h sampling schedule): −3.01 ± 2.44^d mmol · h/L
Glucose change AUEC(0-2) [1, 8]: -0.63 ± 0.77 mmol·h/L
Glucose change from baseline Emax [1, 8]: -0.79 ± 0.43 mmol/L
Glucose change tEmax, median [1, 8]: 6.00 h
Maximum % change of glucose from baseline up to 6 h [1, 8]: −12.41 ± 6.48%
Plasma glucose AURC(0-2) [1, 8]: 11.06 ± 0.69 mmol·h/L
Plasma glucose Rmax (minimum concentration) [1, 8]: 5.08 ± 0.20 mmol/L
Plasma glucose tRmax, median [1, 8]: 6.00 h
Glucose change AUEC(0-6) ([1]; 150 Units oral insulin alone, non-hypoglycemic subjects, AUEC(0-t) for 6 h sampling schedule): −3.01 ± 2.44^d mmol · h/L
Plasma glucose AURC(0-6) ([1]; 150 Units oral insulin alone, non-hypoglycemic subjects, AURC(0-t) for 6 h sampling schedule): 32.15 ± 1.41^c mmol · h/L
Changes in aorta mRNA levels (control groups) [2]: no consistent and significant changes in mRNA levels in the aorta
